Measurements: paper PMC8963254, “Effects of Lysine N-ζ-Methylation in Ultrashort Tetrabasic Lipopeptides (UTBLPs) on the Potentiation of Rifampicin, Novobiocin, and Niclosamide in Gram-Negative Bacteria” (Antibiotics, 2022)
Read-outs that look alike come from different tables or passages of the source.

Experiments:
A. baumannii ATCC 17978 [1] = assay type: cell-based, Acinetobacter baumannii; details: ATCC 17978, 18 h
Description: (§1) The in vitro antibacterial activity of the UTBLPs was assessed against wild-type and clinically isolated bacterial strains. To obtain the MIC of the compounds, the microbroth dilution susceptibility assay was performed according to the Clinical and Laboratory Standards Institute (CLSI, Wayne, PA, USA) guidelines and as previously described. Briefly, the compounds at varying concentrations were incubated with bacterial inoculum (5 × 10^5 CFU/mL final concentration) at 37 °C for 18 h. Growth in the form of turbidity was confirmed using an EMax Plus microplate reader (Molecular Devices, San Jose, CA, USA) at 590 nm.

E. faecalis ATCC 29212 = assay type: cell-based, Enterococcus faecalis; details: ATCC 29212, 18 h
Description: as §1

E. faecium ATCC 27270 = assay type: cell-based, Enterococcus faecium; details: ATCC 27270, 18 h
Description: as §1

A. baumannii AB027 [2] = experiment: microbe, parasite or virus in culture; assay type: cell-based, Acinetobacter baumannii; details: AB027, 18 h
Procedure, shortened: (§2)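 MIC was determined by broth microdilution following CLSI guidelines. Serially varied compound concentrations were incubated with bacterial inoculum at 5 × 10^5 CFU/mL (final) for 18 h at 37 °C. Growth was scored as turbidity by absorbance at 590 nm.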

A. baumannii AB92247 = experiment: microbe, parasite or virus in culture; assay type: cell-based, Acinetobacter baumannii; details: AB92247, 18 h
Procedure, shortened: as §2

[3] = tested on: P. aeruginosa PA259-96196; assay type: cell-based, Pseudomonas aeruginosa; details: for MICUTBLP: UTBLP alone
Procedure, shortened: (§3)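 Checkerboard synergy assay: antibiotic and OMP combined at varying concentrations with 5 × 10^5 CFU/mL inoculum (final), 37 °C, 18 h; growth read as turbidity at 590 nm. FICI = sum of FICs (MIC in combination / MIC alone); ≤0.5 synergistic, 0.5–4 additive, >4 antagonistic.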

[4] = tested on: P. aeruginosa PA262-101856; assay type: cell-based, Pseudomonas aeruginosa; details: for MICUTBLP: UTBLP alone
Procedure, shortened: as §3

P. aeruginosa PAO1 = assay type: cell-based, Pseudomonas aeruginosa; details: for MICUTBLP: UTBLP alone
Procedure, shortened: as §3

A. baumannii 92247 = assay type: cell-based, Acinetobacter baumannii; details: for MICUTBLP: UTBLP alone
Procedure, shortened: as §3

A. baumannii AB027 [5] = assay type: cell-based, Acinetobacter baumannii; details: for MICUTBLP: UTBLP alone
Procedure, shortened: as §3

A. baumannii ATCC 17978 [6] = assay type: cell-based, Acinetobacter baumannii; details: for MICUTBLP: UTBLP alone
Procedure, shortened: as §3

E. coli 94474 = assay type: cell-based, Escherichia coli; details: for MICUTBLP: UTBLP alone
Procedure, shortened: as §3

E. cloacae 118564 = assay type: cell-based, Enterobacter cloacae; details: for MICUTBLP: UTBLP alone
Procedure, shortened: as §3

K. pneumoniae 113250 = assay type: cell-based, Klebsiella pneumoniae; details: for MICUTBLP: UTBLP alone
Procedure, shortened: as §3

MRSA ATCC 33592 = assay type: cell-based, Staphylococcus aureus
Procedure, shortened: as §3

S. aureus ATCC 29213 = assay type: cell-based, Staphylococcus aureus
Procedure, shortened: as §3

[7] = UTBLP in combination with novobiocin
[8] = UTBLP in combination with rifampicin
[9] = novobiocin in combination with the UTBLP
[10] = rifampicin in combination with the UTBLP
[11] = UTBLP in combination with chloramphenicol
[12] = UTBLP in combination with niclosamide
[13] = chloramphenicol in combination with the UTBLP
[14] = niclosamide in combination with the UTBLP
[15] = UTBLP alone, plate with chloramphenicol

## CCCCCCCC(=O)N[C@@H](CCCCN(C)C)C(=O)NCCCN(CCCNC(=O)[C@H](CCCCN(C)C)NC(=O)CCCCCCC)CC(=O)N[C@@H](CCCCN(C)C)C(N)=O [UTBLP 3]
A. baumannii ATCC 17978 [1]
  MIC: >128 µg/mL
E. faecalis ATCC 29212
  MIC: >128 µg/mL
E. faecium ATCC 27270
  MIC: >128 µg/mL
A. baumannii AB027 [2]
  MIC: > 128 µg/mL
A. baumannii AB92247
  MIC: > 128 µg/mL
[3]; UTBLP + novobiocin
  Interpretation: Additive (0.5 < x ≤ 4 is additive)
[3]; UTBLP + rifampicin
  Interpretation: Additive (0.5 < x ≤ 4 is additive)
[3]; plate with novobiocin
  MICUTBLP: > 128 µg/mL
[3]; plate with rifampicin
  MICUTBLP: > 128 µg/mL
[3]; [7]
  MICUTBLP [MICcombo]: 0.25 µg/mL
[3]; [8]
  MICUTBLP [MICcombo]: 16 µg/mL
[3]; [9]
  MICantibiotic [MICcombo]: 2048 µg/mL
[3]; [10]
  MICantibiotic [MICcombo]: 16 µg/mL
[4]; UTBLP + novobiocin
  Interpretation: Additive (0.5 < x ≤ 4 is additive)
[4]; UTBLP + rifampicin
  Interpretation: Additive (0.5 < x ≤ 4 is additive)
[4]; plate with novobiocin
  MICUTBLP: > 128 µg/mL
[4]; plate with rifampicin
  MICUTBLP: > 128 µg/mL
[4]; [7]
  MICUTBLP [MICcombo]: 8 µg/mL
[4]; [8]
  MICUTBLP [MICcombo]: 0.25 µg/mL
[4]; [9]
  MICantibiotic [MICcombo]: 1024 µg/mL
[4]; [10]
  MICantibiotic [MICcombo]: 512 µg/mL
P. aeruginosa PAO1; UTBLP + chloramphenicol
  Interpretation: Additive (0.5 < x ≤ 4 is additive)
P. aeruginosa PAO1; UTBLP + niclosamide
  Interpretation: Additive (0.5 < x ≤ 4 is additive)
P. aeruginosa PAO1; UTBLP + novobiocin
  Interpretation: Additive (0.5 < x ≤ 4 is additive)
P. aeruginosa PAO1; UTBLP + rifampicin
  Interpretation: Additive (0.5 < x ≤ 4 is additive)
P. aeruginosa PAO1; plate with chloramphenicol
  MICUTBLP: > 128 µg/mL
P. aeruginosa PAO1; plate with niclosamide
  MICUTBLP: > 128 µg/mL
P. aeruginosa PAO1; plate with novobiocin
  MICUTBLP: > 128 µg/mL
P. aeruginosa PAO1; plate with rifampicin
  MICUTBLP: > 128 µg/mL
P. aeruginosa PAO1; [11]
  MICUTBLP [MICcombo]: 8 µg/mL
P. aeruginosa PAO1; [12]
  MICUTBLP [MICcombo]: 0.25 µg/mL
P. aeruginosa PAO1; [7]
  MICUTBLP [MICcombo]: 16 µg/mL
P. aeruginosa PAO1; [8]
  MICUTBLP [MICcombo]: 0.25 µg/mL
P. aeruginosa PAO1; [13]
  MICantibiotic [MICcombo]: 8 µg/mL
P. aeruginosa PAO1; [14]
  MICantibiotic [MICcombo]: 1024 µg/mL
P. aeruginosa PAO1; [9]
  MICantibiotic [MICcombo]: 512 µg/mL
P. aeruginosa PAO1; [10]
  MICantibiotic [MICcombo]: 16 µg/mL
A. baumannii 92247; UTBLP + novobiocin
  Interpretation: Synergy (FICI ≤ 0.5 is synergistic)
A. baumannii 92247; UTBLP + rifampicin
  Interpretation: Synergy (FICI ≤ 0.5 is synergistic)
A. baumannii 92247; plate with novobiocin
  MICUTBLP: > 128 µg/mL
A. baumannii 92247; plate with rifampicin
  MICUTBLP: > 128 µg/mL
A. baumannii 92247; [7]
  MICUTBLP [MICcombo]: 8 µg/mL
A. baumannii 92247; [8]
  MICUTBLP [MICcombo]: 16 µg/mL
A. baumannii 92247; [9]
  MICantibiotic [MICcombo]: 1 µg/mL
A. baumannii 92247; [10]
  MICantibiotic [MICcombo]: 0.25 µg/mL
A. baumannii AB027 [5]; UTBLP + novobiocin
  Interpretation: Synergy (FICI ≤ 0.5 is synergistic)
A. baumannii AB027 [5]; UTBLP + rifampicin
  Interpretation: Additive (0.5 < x ≤ 4 is additive)
A. baumannii AB027 [5]; plate with novobiocin
  MICUTBLP: > 128 µg/mL
A. baumannii AB027 [5]; plate with rifampicin
  MICUTBLP: > 128 µg/mL
A. baumannii AB027 [5]; [7]
  MICUTBLP [MICcombo]: 16 µg/mL
A. baumannii AB027 [5]; [8]
  MICUTBLP [MICcombo]: 4 µg/mL
A. baumannii AB027 [5]; [9]
  MICantibiotic [MICcombo]: 2 µg/mL
A. baumannii AB027 [5]; [10]
  MICantibiotic [MICcombo]: 0.5 µg/mL
A. baumannii ATCC 17978 [6]; UTBLP + chloramphenicol
  Interpretation: Additive (0.5 < x ≤ 4 is additive)
A. baumannii ATCC 17978 [6]; UTBLP + niclosamide
  Interpretation: Additive (0.5 < x ≤ 4 is additive)
A. baumannii ATCC 17978 [6]; UTBLP + novobiocin
  Interpretation: Synergy (FICI ≤ 0.5 is synergistic)
A. baumannii ATCC 17978 [6]; UTBLP + rifampicin
  Interpretation: Synergy (FICI ≤ 0.5 is synergistic)
A. baumannii ATCC 17978 [6]; plate with chloramphenicol
  MICUTBLP: > 128 µg/mL
A. baumannii ATCC 17978 [6]; plate with niclosamide
  MICUTBLP: > 128 µg/mL
A. baumannii ATCC 17978 [6]; plate with novobiocin
  MICUTBLP: > 128 µg/mL
A. baumannii ATCC 17978 [6]; plate with rifampicin
  MICUTBLP: > 128 µg/mL
A. baumannii ATCC 17978 [6]; [11]
  MICUTBLP [MICcombo]: 16 µg/mL
A. baumannii ATCC 17978 [6]; [12]
  MICUTBLP [MICcombo]: 0.25 µg/mL
A. baumannii ATCC 17978 [6]; [7]
  MICUTBLP [MICcombo]: 8 µg/mL
A. baumannii ATCC 17978 [6]; [8]
  MICUTBLP [MICcombo]: 8 µg/mL
A. baumannii ATCC 17978 [6]; [13]
  MICantibiotic [MICcombo]: 64 µg/mL
A. baumannii ATCC 17978 [6]; [14]
  MICantibiotic [MICcombo]: 1024 µg/mL
A. baumannii ATCC 17978 [6]; [9]
  MICantibiotic [MICcombo]: 1 µg/mL
A. baumannii ATCC 17978 [6]; [10]
  MICantibiotic [MICcombo]: 0.5 µg/mL
E. coli 94474; UTBLP + novobiocin
  Interpretation: Synergy (FICI ≤ 0.5 is synergistic)
E. coli 94474; UTBLP + rifampicin
  Interpretation: Additive (0.5 < x ≤ 4 is additive)
E. coli 94474; plate with novobiocin
  MICUTBLP: > 128 µg/mL
E. coli 94474; plate with rifampicin
  MICUTBLP: > 128 µg/mL
E. coli 94474; [7]
  MICUTBLP [MICcombo]: 16 µg/mL
E. coli 94474; [8]
  MICUTBLP [MICcombo]: 16 µg/mL
E. coli 94474; [9]
  MICantibiotic [MICcombo]: 32 µg/mL
E. coli 94474; [10]
  MICantibiotic [MICcombo]: 2 µg/mL
E. cloacae 118564; UTBLP + novobiocin
  Interpretation: Synergy (FICI ≤ 0.5 is synergistic)
E. cloacae 118564; UTBLP + rifampicin
  Interpretation: Synergy (FICI ≤ 0.5 is synergistic)
E. cloacae 118564; plate with novobiocin
  MICUTBLP: > 128 µg/mL
E. cloacae 118564; plate with rifampicin
  MICUTBLP: > 128 µg/mL
E. cloacae 118564; [7]
  MICUTBLP [MICcombo]: 16 µg/mL
E. cloacae 118564; [8]
  MICUTBLP [MICcombo]: 8 µg/mL
E. cloacae 118564; [9]
  MICantibiotic [MICcombo]: 16 µg/mL
E. cloacae 118564; [10]
  MICantibiotic [MICcombo]: 2 µg/mL
K. pneumoniae 113250; UTBLP + novobiocin
  Interpretation: Synergy (FICI ≤ 0.5 is synergistic)
K. pneumoniae 113250; UTBLP + rifampicin
  Interpretation: Synergy (FICI ≤ 0.5 is synergistic)
K. pneumoniae 113250; plate with novobiocin
  MICUTBLP: > 128 µg/mL
K. pneumoniae 113250; plate with rifampicin
  MICUTBLP: > 128 µg/mL
K. pneumoniae 113250; [7]
  MICUTBLP [MICcombo]: 16 µg/mL
K. pneumoniae 113250; [8]
  MICUTBLP [MICcombo]: 16 µg/mL
K. pneumoniae 113250; [9]
  MICantibiotic [MICcombo]: 32 µg/mL
K. pneumoniae 113250; [10]
  MICantibiotic [MICcombo]: 4 µg/mL
MRSA ATCC 33592; UTBLP + chloramphenicol
  Interpretation: Additive (0.5 < x ≤ 4 is additive)
MRSA ATCC 33592; [15]
  MICUTBLP: > 128 µg/mL
MRSA ATCC 33592; [11]
  MICUTBLP [MICcombo]: 0.25 µg/mL
MRSA ATCC 33592; [13]
  MICchloramphenicol [MICcombo]: 64 µg/mL
S. aureus ATCC 29213; [15]
  MICUTBLP: > 128 µg/mL
S. aureus ATCC 29213; [11]
  MICUTBLP [MICcombo]: 0.25 µg/mL
S. aureus ATCC 29213; [13]
  MICchloramphenicol [MICcombo]: 16 µg/mL
